Measured values from ChEMBL document CHEMBL4420075, “Seriniquinones, melanoma-specific anticancer agents” (2016).
Activity calls are given as the source filed them. The calls are words filed in the database; no cut-off is given here.

Tests used:
HCT-116 [1] = test: Induction of autophagy in human HCT116 cells assessed as increase in of LC3B-II level at 17 uM incubated for 24 hrs by Western blot analysis; format: functional, cell-based
HCT-116 [2] = test: Induction of autophagy in human HCT116 cells assessed as increase in of LC3A-II level at 17 uM incubated for 24 hrs by Western blot analysis; format: functional, cell-based
K562 = test: Growth inhibition of human K562 cells assessed as cell growth incubated for 48 hrs by sulforhodamine B assay; format: functional; parameters: concentration or dose not given beside the values
HT-29 = test: Growth inhibition of human HT-29 cells assessed as cell growth incubated for 48 hrs by sulforhodamine B assay; format: functional; parameters: concentration or dose not given beside the values
SK-MEL-2 = test: Growth inhibition of human SK-MEL-2 cells assessed as cell growth incubated for 48 hrs by sulforhodamine B assay; format: functional; parameters: concentration or dose not given beside the values
SN12C = test: Growth inhibition of human SN12C cells assessed as cell growth incubated for 48 hrs by sulforhodamine B assay; format: functional; parameters: concentration or dose not given beside the values
ACHN = test: Growth inhibition of human ACHN cells assessed as cell growth incubated for 48 hrs by sulforhodamine B assay; format: functional; parameters: scale not given: the % may be the effect or the level left
A498 = test: Growth inhibition of human A498 cells assessed as cell growth incubated for 48 hrs by sulforhodamine B assay; format: functional; parameters: concentration or dose not given beside the values
OVCAR-4 = test: Growth inhibition of human OVCAR4 cells assessed as cell growth incubated for 48 hrs by sulforhodamine B assay; format: functional; parameters: concentration or dose not given beside the values
LOX IMVI = test: Growth inhibition of human LOXIMVI cells assessed as cell growth incubated for 48 hrs by sulforhodamine B assay; format: functional; parameters: concentration or dose not given beside the values
Malme-3M = test: Growth inhibition of human MALME-3M cells assessed as cell growth incubated for 48 hrs by sulforhodamine B assay; format: functional; parameters: scale not given: the % may be the effect or the level left
T47D = test: Growth inhibition of human T47D cells assessed as cell growth incubated for 48 hrs by sulforhodamine B assay; format: functional; parameters: concentration or dose not given beside the values
MOLT-4 = test: Growth inhibition of human MOLT4 cells assessed as cell growth incubated for 48 hrs by sulforhodamine B assay; format: functional; parameters: concentration or dose not given beside the values
UACC-257 = test: Growth inhibition of human UACC257 cells assessed as cell growth incubated for 48 hrs by sulforhodamine B assay; format: functional; parameters: concentration or dose not given beside the values
COLO 205 = test: Growth inhibition of human COLO205 cells assessed as cell growth incubated for 48 hrs by sulforhodamine B assay; format: functional; parameters: concentration or dose not given beside the values
TK-10 = test: Growth inhibition of human TK10 cells assessed as cell growth incubated for 48 hrs by sulforhodamine B assay; format: functional; parameters: concentration or dose not given beside the values
NCI-H460 = test: Growth inhibition of human NCI-H460 cells assessed as cell growth incubated for 48 hrs by sulforhodamine B assay; format: functional; parameters: concentration or dose not given beside the values
OVCAR-5 = test: Growth inhibition of human OVCAR5 cells assessed as cell growth incubated for 48 hrs by sulforhodamine B assay; format: functional; parameters: scale not given: the % may be the effect or the level left
PC-3 = test: Growth inhibition of human PC3 cells assessed as cell growth incubated for 48 hrs by sulforhodamine B assay; format: functional; parameters: concentration or dose not given beside the values
SR = test: Growth inhibition of human SR cells assessed as cell growth incubated for 48 hrs by sulforhodamine B assay; format: functional; parameters: concentration or dose not given beside the values
UO-31 = test: Growth inhibition of human UO31 cells assessed as cell growth incubated for 48 hrs by sulforhodamine B assay; format: functional; parameters: concentration or dose not given beside the values
NCI-H226 = test: Growth inhibition of human NCI-H226 cells assessed as cell growth incubated for 48 hrs by sulforhodamine B assay; format: functional; parameters: concentration or dose not given beside the values
SNB-75 = test: Growth inhibition of human SNB75 cells assessed as cell growth incubated for 48 hrs by sulforhodamine B assay; format: functional; parameters: concentration or dose not given beside the values
KM12 = test: Growth inhibition of human KM12 cells assessed as cell growth incubated for 48 hrs by sulforhodamine B assay; format: functional; parameters: concentration or dose not given beside the values
SK-MEL-28 = test: Growth inhibition of human SK-MEL-28 cells assessed as cell growth incubated for 48 hrs by sulforhodamine B assay; format: functional; parameters: concentration or dose not given beside the values
NCI-H522 = test: Growth inhibition of human NCI-H522 cells assessed as cell growth incubated for 48 hrs by sulforhodamine B assay; format: functional; parameters: concentration or dose not given beside the values
SF-295 = test: Growth inhibition of human SF295 cells assessed as cell growth incubated for 48 hrs by sulforhodamine B assay; format: functional; parameters: concentration or dose not given beside the values
MDA-MB-435 = test: Growth inhibition of human MDA-MB-435 cells assessed as cell growth incubated for 48 hrs by sulforhodamine B assay; format: functional; parameters: concentration or dose not given beside the values
DU-145 = test: Growth inhibition of human DU145 cells assessed as cell growth incubated for 48 hrs by sulforhodamine B assay; format: functional; parameters: concentration or dose not given beside the values
NCI-H23 = test: Growth inhibition of human NCI-H23 cells assessed as cell growth incubated for 48 hrs by sulforhodamine B assay; format: functional; parameters: concentration or dose not given beside the values
A549 = test: Growth inhibition of human A549/ATCC cells assessed as cell growth incubated for 48 hrs by sulforhodamine B assay; format: functional; parameters: concentration or dose not given beside the values
OVCAR-8 = test: Growth inhibition of human OVCAR8 cells assessed as cell growth incubated for 48 hrs by sulforhodamine B assay; format: functional; parameters: concentration or dose not given beside the values
SK-MEL-5 = test: Growth inhibition of human SK-MEL-5 cells assessed as cell growth incubated for 48 hrs by sulforhodamine B assay; format: functional; parameters: concentration or dose not given beside the values
NCI-H322M = test: Growth inhibition of human NCI-H322M cells assessed as cell growth incubated for 48 hrs by sulforhodamine B assay; format: functional; parameters: scale not given: the % may be the effect or the level left
MDA-MB-468 = test: Growth inhibition of human MDA-MB-468 cells assessed as cell growth incubated for 48 hrs by sulforhodamine B assay; format: functional; parameters: concentration or dose not given beside the values
HOP-92 = test: Growth inhibition of human HOP92 cells assessed as cell growth incubated for 48 hrs by sulforhodamine B assay; format: functional; parameters: concentration or dose not given beside the values
IGROV-1 = test: Growth inhibition of human IGROV1 cells assessed as cell growth incubated for 48 hrs by sulforhodamine B assay; format: functional; parameters: scale not given: the % may be the effect or the level left
HL-60(TB) = test: Growth inhibition of human HL-60(TB) cells assessed as cell growth incubated for 48 hrs by sulforhodamine B assay; format: functional; parameters: concentration or dose not given beside the values
SW-620 = test: Growth inhibition of human SW620 cells assessed as cell growth incubated for 48 hrs by sulforhodamine B assay; format: functional; parameters: concentration or dose not given beside the values
RXF 393 = test: Growth inhibition of human RXF393 cells assessed as cell growth incubated for 48 hrs by sulforhodamine B assay; format: functional; parameters: concentration or dose not given beside the values
HOP-62 = test: Growth inhibition of human HOP62 cells assessed as cell growth incubated for 48 hrs by sulforhodamine B assay; format: functional; parameters: concentration or dose not given beside the values
RPMI-8226 = test: Growth inhibition of human RPMI8226 cells assessed as cell growth incubated for 48 hrs by sulforhodamine B assay; format: functional; parameters: concentration or dose not given beside the values
HCT-116 [3] = test: Growth inhibition of human HCT116 cells assessed as cell growth incubated for 48 hrs by sulforhodamine B assay; format: functional; parameters: concentration or dose not given beside the values
SNB-19 = test: Growth inhibition of human SNB19 cells assessed as cell growth incubated for 48 hrs by sulforhodamine B assay; format: functional; parameters: concentration or dose not given beside the values
CCRF-CEM = test: Growth inhibition of human CCRF-CEM cells assessed as cell growth incubated for 48 hrs by sulforhodamine B assay; format: functional; parameters: concentration or dose not given beside the values
SF-268 = test: Growth inhibition of human SF268 cells assessed as cell growth incubated for 48 hrs by sulforhodamine B assay; format: functional; parameters: concentration or dose not given beside the values
OVCAR-3 = test: Growth inhibition of human OVCAR3 cells assessed as cell growth incubated for 48 hrs by sulforhodamine B assay; format: functional; parameters: concentration or dose not given beside the values
BT-549 = test: Growth inhibition of human BT549 cells assessed as cell growth incubated for 48 hrs by sulforhodamine B assay; format: functional; parameters: concentration or dose not given beside the values
Hs-578T = test: Growth inhibition of human Hs 578T cells assessed as cell growth incubated for 48 hrs by sulforhodamine B assay; format: functional; parameters: concentration or dose not given beside the values
SK-OV-3 = test: Growth inhibition of human SKOV3 cells assessed as cell growth incubated for 48 hrs by sulforhodamine B assay; format: functional; parameters: concentration or dose not given beside the values
786-0 = test: Growth inhibition of human 786-0 cells assessed as cell growth incubated for 48 hrs by sulforhodamine B assay; format: functional; parameters: concentration or dose not given beside the values
HCC 2998 = test: Growth inhibition of human HCC2998 cells assessed as cell growth incubated for 48 hrs by sulforhodamine B assay; format: functional; parameters: concentration or dose not given beside the values
HCT-15 = test: Growth inhibition of human HCT15 cells assessed as cell growth incubated for 48 hrs by sulforhodamine B assay; format: functional; parameters: scale not given: the % may be the effect or the level left
U-251 = test: Growth inhibition of human U251 cells assessed as cell growth incubated for 48 hrs by sulforhodamine B assay; format: functional; parameters: concentration or dose not given beside the values
UACC-62 = test: Growth inhibition of human UACC62 cells assessed as cell growth incubated for 48 hrs by sulforhodamine B assay; format: functional; parameters: concentration or dose not given beside the values
MDA-MB-231 = test: Growth inhibition of human MDA-MB-231 cells assessed as cell growth incubated for 48 hrs by sulforhodamine B assay; format: functional; parameters: concentration or dose not given beside the values
CAKI-1 = test: Growth inhibition of human Caki1 cells assessed as cell growth incubated for 48 hrs by sulforhodamine B assay; format: functional; parameters: concentration or dose not given beside the values
NCI/ADR-RES = test: Growth inhibition of human NCI/ADR-RES cells assessed as cell growth incubated for 48 hrs by sulforhodamine B assay; format: functional; parameters: concentration or dose not given beside the values
M14 = test: Growth inhibition of human M14 cells assessed as cell growth incubated for 48 hrs by sulforhodamine B assay; format: functional; parameters: concentration or dose not given beside the values
SF-539 = test: Growth inhibition of human SF539 cells assessed as cell growth incubated for 48 hrs by sulforhodamine B assay; format: functional; parameters: scale not given: the % may be the effect or the level left
MCF7 = test: Growth inhibition of human MCF7 cells assessed as cell growth incubated for 48 hrs by sulforhodamine B assay; format: functional; parameters: concentration or dose not given beside the values

COc1cc([C@@H]2c3cc4c(cc3[C@@H](O[C@@H]3O[C@@H]5CO[C@@H](C)O[C@H]5[C@H](O)[C@H]3O)[C@H]3COC(=O)[C@H]23)OCO4)cc(OC)c1O
Activity (HCT-116 [1]): Active | Activity (HCT-116 [2]): Active

O=c1c2ccccc2c(=O)c2c1sc1c(=O)c3ccc(CCCO)cc3c(=O)c12
Activity (K562): -26.48% | Activity (HT-29): -50.87% | Activity (SK-MEL-2): -72.58% | Activity (SN12C): -85.36% | Activity (ACHN): -100% | Activity (A498): -93% | Activity (OVCAR-4): -100% | Activity (LOX IMVI): -80.49% | Activity (Malme-3M): -94.59% | Activity (T47D): -45.39% | Activity (MOLT-4): -48.47% | Activity (UACC-257): -98.14% | Activity (COLO 205): -100% | Activity (TK-10): -94.99% | Activity (NCI-H460): -65.79% | Activity (OVCAR-5): -95.91% | Activity (PC-3): -10.27% | Activity (SR): -22.18% | Activity (UO-31): -96.45% | Activity (NCI-H226): -53.49% | Activity (SNB-75): -96.48% | Activity (KM12): -60.46% | Activity (SK-MEL-28): -91.59% | Activity (NCI-H522): -73.7% | Activity (SF-295): -93.12% | Activity (MDA-MB-435): -94.78% | Activity (DU-145): -98.88% | Activity (NCI-H23): -39.8% | Activity (A549): -66.71% | Activity (OVCAR-8): -30.24% | Activity (SK-MEL-5): -100% | Activity (NCI-H322M): -96.79% | Activity (MDA-MB-468): -69.73% | Activity (HOP-92): -25.51% | Activity (IGROV-1): -77.75% | Activity (HL-60(TB)): -39.5% | Activity (SW-620): -71.53% | Activity (RXF 393): -77.25% | Activity (HOP-62): -100% | Activity (RPMI-8226): -37.51% | Activity (HCT-116 [3]): -56.49% | Activity (SNB-19): -83.74% | Activity (CCRF-CEM): -42.44% | Activity (SF-268): -52.35% | Activity (OVCAR-3): -43.56% | Activity (BT-549): -95.56% | Activity (Hs-578T): -11.73% | Activity (SK-OV-3): -74.3% | Activity (786-0): -90.2% | Activity (HCC 2998): -89.21% | Activity (HCT-15): -68.1% | Activity (U-251): -92.1% | Activity (UACC-62): -88.56% | Activity (MDA-MB-231): -36.34% | Activity (CAKI-1): -39.14% | Activity (NCI/ADR-RES): -22.56% | Activity (M14): -94.97% | Activity (SF-539): -100% | Activity (MCF7): -57.56%
